The target of test [1] is Histone deacetylase 1 (Homo sapiens, UniProt Q13547).
Description: Inhibition of HDAC-1 (unknown origin) using (FAM)-labeled acetylated peptide as substrate after 17 hrs by fluorescence assay
Test [2] addresses Histone deacetylase 3 (Homo sapiens, UniProt O15379). The experiment in a line: Inhibition of HDAC-3 (unknown origin) using (FAM)-labeled acetylated peptide as substrate after 17 hrs by fluorescence assay.
Test [3] has as its target T1, Histone deacetylase 2 (Homo sapiens, UniProt Q92769). Briefly: Inhibition of HDAC-2 (unknown origin) using (FAM)-labeled acetylated peptide as substrate after 17 hrs by fluorescence assay.
Test [4] has as its target T1, Histone deacetylase 2. The experiment in a line: Inhibition of recombinant human HDAC-2 expressed in baculovirus infected insect Sf9 cells using Fluor de Lys as substrate preincubated for 2 hrs followed by substrate addition measured after 10 mins by fluorescence assay.
For test [5], the target named is Histone deacetylase. Briefly: Inhibition of HDAC in human HeLa cells assessed as histone H3 hyperacetylation after 7 hrs. The class given is cell-based.
The target of test [6] is Histone deacetylase. Briefly: Inhibition of HDAC in human HeLa cells assessed as alpha-tubulin acetylation after 7 hrs. The class given is cell-based.
Test [7] has as its target Histone deacetylase. The experiment in a line: Inhibition of HDAC isolated from human HeLa cell nuclear extracts using Fluor de Lys as substrate after 30 mins by fluorescence assay. The class given is protein assay.

T1 sequence (Q92769 whole entry): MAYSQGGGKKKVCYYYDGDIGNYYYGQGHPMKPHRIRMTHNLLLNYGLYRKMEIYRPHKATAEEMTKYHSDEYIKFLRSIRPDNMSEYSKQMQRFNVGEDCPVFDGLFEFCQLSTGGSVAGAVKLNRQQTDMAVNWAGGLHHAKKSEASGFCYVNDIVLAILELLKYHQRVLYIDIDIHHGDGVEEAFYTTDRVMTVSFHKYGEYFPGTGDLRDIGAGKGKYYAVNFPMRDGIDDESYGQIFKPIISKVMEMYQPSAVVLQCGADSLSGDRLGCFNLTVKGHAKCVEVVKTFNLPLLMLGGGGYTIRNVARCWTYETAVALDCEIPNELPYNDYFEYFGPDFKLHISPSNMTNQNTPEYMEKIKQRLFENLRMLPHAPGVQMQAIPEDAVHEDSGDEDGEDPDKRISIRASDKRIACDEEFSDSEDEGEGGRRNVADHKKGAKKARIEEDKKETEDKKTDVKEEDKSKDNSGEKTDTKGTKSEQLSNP
Chain of Histone deacetylase 1 (Q13547 whole entry): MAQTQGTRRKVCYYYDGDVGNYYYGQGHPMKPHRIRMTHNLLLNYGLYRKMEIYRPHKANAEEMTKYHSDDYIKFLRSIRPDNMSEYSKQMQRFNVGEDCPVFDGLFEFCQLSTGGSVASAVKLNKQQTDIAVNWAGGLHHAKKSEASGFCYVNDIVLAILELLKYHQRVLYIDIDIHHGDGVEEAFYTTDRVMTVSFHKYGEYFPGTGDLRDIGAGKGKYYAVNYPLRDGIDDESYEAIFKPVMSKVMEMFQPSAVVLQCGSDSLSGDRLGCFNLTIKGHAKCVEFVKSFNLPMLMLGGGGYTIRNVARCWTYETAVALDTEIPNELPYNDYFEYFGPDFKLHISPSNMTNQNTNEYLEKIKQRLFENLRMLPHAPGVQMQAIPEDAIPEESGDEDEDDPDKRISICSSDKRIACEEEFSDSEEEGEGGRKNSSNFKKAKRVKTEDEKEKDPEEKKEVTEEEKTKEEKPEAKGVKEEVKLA
Chain of Histone deacetylase 3 (O15379 whole entry): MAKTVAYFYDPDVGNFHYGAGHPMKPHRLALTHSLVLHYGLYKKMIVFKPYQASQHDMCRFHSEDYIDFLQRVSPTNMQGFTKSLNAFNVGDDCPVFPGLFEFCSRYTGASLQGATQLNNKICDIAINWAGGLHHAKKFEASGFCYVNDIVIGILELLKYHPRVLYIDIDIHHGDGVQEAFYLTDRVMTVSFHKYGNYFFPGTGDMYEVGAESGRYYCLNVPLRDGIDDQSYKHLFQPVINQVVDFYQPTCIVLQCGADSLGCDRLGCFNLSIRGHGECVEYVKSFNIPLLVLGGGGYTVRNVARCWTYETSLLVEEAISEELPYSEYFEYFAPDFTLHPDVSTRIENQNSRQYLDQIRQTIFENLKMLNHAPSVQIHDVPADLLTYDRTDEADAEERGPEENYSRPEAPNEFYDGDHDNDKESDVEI

As for `Nc1ccccc1NC(=O)CCCCCCC(=O)Nc1ccccc1N`, the IC50 is 14.6 µM in test [1], 988 nM in test [2] and 4.8 µM in test [3].
Regarding `CCCCc1nc2cc(/C=C/C(=O)NO)ccc2n1CCN(CC)CC` [PRACINOSTAT], in test [4], the Ki was 16 nM.
Turning to `CC(=O)SCC(=O)c1ccc(NS(=O)(=O)c2ccc(OCCCN(C)C)cc2)nc1`, the EC50 in test [5] is listed as 25 nM; in test [6], 325 nM. The molecule also displayed an IC50 in test [7] of 45 nM.

Broadly, the IC50 is the concentration that gives 50% inhibition. Read a low IC50 as inhibition by little substance. As usually defined, the Ki is a dissociation constant, usually derived from enzyme kinetics or from competition with a known ligand. The term EC50 denotes the concentration giving half of the maximal effect.

Source of the values: ChEMBL document CHEMBL3390834, “Development of second generation epigenetic agents” (Medchemcomm, 2012).
